Patent US20080009548A1, “AMBROXOL FOR THE TREATMENT OF ACUTE PAIN” (priority 2003, published 2008)

Tests used:
human GluR1/2 receptors = target: T1, human GluR1/2 receptors (Homo sapiens, UniProt P42261+P42262); assay: Patch-Clamp measurement of glutamate-induced membrane currents in HEK 293 cells expressing GluR1/2 receptors; type: cell-based; settings: HEK 293 cells expressing human GluR1/2; 1 mM glutamate for 1 s, holding potential −80 mV
T1 construct: expressed in transfected cells; host or cells: HEK 293
T1 sequence (P42261 19-906): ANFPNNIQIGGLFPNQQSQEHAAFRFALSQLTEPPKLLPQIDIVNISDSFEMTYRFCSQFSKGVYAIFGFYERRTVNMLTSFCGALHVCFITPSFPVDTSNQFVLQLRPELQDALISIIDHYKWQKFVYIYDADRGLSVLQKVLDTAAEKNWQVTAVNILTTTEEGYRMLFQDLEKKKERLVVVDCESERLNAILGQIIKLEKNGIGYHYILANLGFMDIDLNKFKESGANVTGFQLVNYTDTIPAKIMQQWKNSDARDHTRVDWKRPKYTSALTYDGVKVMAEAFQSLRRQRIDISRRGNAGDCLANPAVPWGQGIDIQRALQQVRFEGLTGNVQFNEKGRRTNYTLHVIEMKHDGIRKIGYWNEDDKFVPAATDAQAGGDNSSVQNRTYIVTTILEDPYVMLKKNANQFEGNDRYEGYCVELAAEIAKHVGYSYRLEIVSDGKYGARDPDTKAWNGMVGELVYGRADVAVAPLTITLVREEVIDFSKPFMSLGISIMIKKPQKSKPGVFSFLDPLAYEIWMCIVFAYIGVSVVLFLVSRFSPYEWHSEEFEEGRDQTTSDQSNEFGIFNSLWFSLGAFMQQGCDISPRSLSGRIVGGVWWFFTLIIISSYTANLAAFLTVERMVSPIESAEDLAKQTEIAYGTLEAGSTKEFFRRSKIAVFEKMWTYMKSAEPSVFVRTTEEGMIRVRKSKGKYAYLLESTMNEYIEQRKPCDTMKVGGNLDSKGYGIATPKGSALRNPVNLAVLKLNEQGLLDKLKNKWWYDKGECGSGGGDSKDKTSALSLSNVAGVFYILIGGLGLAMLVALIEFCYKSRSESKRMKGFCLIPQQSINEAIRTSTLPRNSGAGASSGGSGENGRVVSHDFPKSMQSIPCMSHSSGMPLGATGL
T1 sequence (P42262 22-883 limits assumed): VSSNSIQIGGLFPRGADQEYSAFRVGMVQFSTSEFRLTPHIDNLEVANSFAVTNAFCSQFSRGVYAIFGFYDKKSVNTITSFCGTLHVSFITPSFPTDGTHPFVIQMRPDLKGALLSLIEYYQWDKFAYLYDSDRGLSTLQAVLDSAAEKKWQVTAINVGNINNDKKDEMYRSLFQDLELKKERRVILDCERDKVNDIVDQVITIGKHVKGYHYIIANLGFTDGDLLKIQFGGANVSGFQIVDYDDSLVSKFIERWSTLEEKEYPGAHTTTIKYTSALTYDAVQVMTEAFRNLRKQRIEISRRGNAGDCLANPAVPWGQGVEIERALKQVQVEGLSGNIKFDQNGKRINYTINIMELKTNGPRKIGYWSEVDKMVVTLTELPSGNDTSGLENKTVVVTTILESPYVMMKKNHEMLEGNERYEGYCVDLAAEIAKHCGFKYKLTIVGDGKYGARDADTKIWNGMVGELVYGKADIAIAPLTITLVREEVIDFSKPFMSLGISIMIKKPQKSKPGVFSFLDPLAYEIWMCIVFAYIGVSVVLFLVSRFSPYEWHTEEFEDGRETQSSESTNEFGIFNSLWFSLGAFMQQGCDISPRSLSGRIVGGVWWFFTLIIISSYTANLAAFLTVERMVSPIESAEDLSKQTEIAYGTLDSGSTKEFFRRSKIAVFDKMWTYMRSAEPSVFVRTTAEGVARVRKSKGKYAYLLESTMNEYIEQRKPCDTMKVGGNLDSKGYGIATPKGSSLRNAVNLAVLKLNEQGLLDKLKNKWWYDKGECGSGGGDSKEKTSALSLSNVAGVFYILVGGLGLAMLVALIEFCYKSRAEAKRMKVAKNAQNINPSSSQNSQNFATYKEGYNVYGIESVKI
Experimental: Ionotropic glutamate receptors of the AMPA sub-type are also essential for the excitatory neurotransmission. […] The blocking of AMPA receptors has been described as being helpful for the treatment of acute pain (e.g., ji Szekely et al. (1997), EJP 336, 143-154). HEK 293 cells which expressed functionally recombinant human GluR1/2 receptors were electrophysiologically investigated by the Patch-Clamp method ([…]). The administration of 1 mM glutamate (for 1 s at a holding potential of −80 mV) induced membrane currents which were inhibited by the joint administration of ambroxol.

[1] = test system: Tetrodotoxin-sensitive currents; type: cell-based, rat; settings: read-out: IC50 of tetrodotoxin-sensitive currents; neuron cultures from the posterior root ganglia of adult rats
[2] = target: tetrodotoxin-resistant sodium channels (Rattus norvegicus, UniProt Q62968); type: cell-based; settings: neuron cultures from the posterior root ganglia of adult rats; read-out: half-maximal inhibition of tetrodotoxin-resistant sodium channels
[3] = test system: voltage-dependent calcium channels; assay: Patch-Clamp measurement of current through voltage-dependent calcium channels in posterior root ganglia neurons; type: cell-based; settings: neuron cultures from adult rat posterior root ganglia; voltage jumps from −80 mV to 0 mV for 50 ms
Excerpt: Voltage-dependent calcium channels play an important role in the transmission of pain-related excitation in the nervous system. The blocking of these channels has been described as being helpful for the treatment of acute pain (KA Sluka (1998), JPET 287, 232-237; J Devulder et al. (2001), J Pain Sympt Management 22, 622-626). […] Neurons were dissected from posterior root ganglia of adult rats and placed in short-term culture. The cells were investigated electrophysiologically by the Patch-Clamp method (voltage terminal), and the flow of current through voltage-dependent calcium channels was measured after electrical stimulation (voltage jumps from −80 mV to 0 mV holding potential for 50 ms) in the presence and absence of ambroxol.

Compound: Nc1c(Br)cc(Br)cc1CN[C@H]1CC[C@H](O)CC1 [ambroxol, trans-4-(2-amino-3,5-dibromobenzylamino)cyclohexanol]
- concentrations that inhibit glutamate-induced membrane currents (human GluR1/2 receptors): 30 to 1000 µM
- IC50 [1]: > 100 µM
- IC50 [2]: 35 µM
- concentrations that block voltage-dependent calcium channels [3]: 10 to 1000 µM
